Counter-ions that a name gives are not always drawn. Like-named read-outs stand apart in the source and are kept apart here.
Experiments:
[1] = test system: female Sprague Daley rats; assay: Mean arterial pressure and heart rate in anaesthetized female rats; format: in vivo, rat; conditions: infusion 0.3 to 10 mg/kg, versus vehicle
Experimental: Measurements mean arterial pressure and heart rate: The anaesthetized rats breathed spontaneously and body temperature was monitored continuously, and maintained at 37.5° C. by placing them on a heating blanket. A heparinized (100 IE mL-1) polyethylene (PE) catheter (PE-50) connected to a pressure transducer (Disposable BP Transducer, AD Instruments, UK) was introduced into the carotid artery to measure MAP. Following a stabilization period of 10-20 min, continuous direct measurements of mean arterial pressure (MAP) and heart rate (HR) were obtained, registered, and analysed on a computerized data acquisition system (PowerLab, ADInstruments).

[2] = test system: Female Sprague Dawley rats; assay: Sexual (paracopulatory) behaviour of estrus-synchronized female rats paired with male rats; format: in vivo, rat
Experimental: Animals: Female Sprague Dawley rats (12-15 weeks old) were housed in the animal facility in Universal Euro Ill type long width cages with standard wood bedding and space for 2 rats with a clean environment, and a comfortable temperature (22-23° C.) with 12:12 h light-dark cycle starting at 11 am and they had free access to food and tap water.
Synchronization of the sexual cycle in estrus of female rats: Female Sprague Dawley rats with an average weight of 250 g were synchronized in the estrus phase of the sexual cycle by injecting with 250 μg prostaglandin F2α (PGF2α) subcutaneously at day 0 and day 3.
To investigate the sexual behavior, the synchronized female rats were paired with trained male rats and behaviour recorded by two cameras. The videos were quantified by a trained operator blinded for the treatments.
Data analysis and statistics: Statistical differences between vehicle, apomorphine and two different doses of IP2015 were analysed using one-way analysis of variance (ANOVA) followed by Tukey post-test. The assumptions of the models were investigated by inspecting Q-Q plots and data were logarithmically transformed when necessary in order to generate a Gaussian-distributed data set. In case where the data were skewed, the Brown-Forsythe test was applied. The ROUT method (Q=1%) was used to exclude data from the analysis. A P<0.05 was considered statistically significant. Post-tests were only done if F was significant and there was no variance inhomogeneity. All statistical analyses were performed using GraphPad Prism 9.5 software (GraphPad Software, CA, USA).

[3] = biological target: T1, dopamine (DA) reuptake in synaptosomes (Rattus norvegicus, UniProt P23977); conditions: reported in U.S. Pat. No. 9,133,184 B1; cited from earlier work
T1 construct: in synaptosomes as described in WO 97/16451; from tissue

[4] = test system: female Sprague Daley rats; assay: Laser Doppler measurement of clitoral blood flow in anaesthetized female rats; format: in vivo, rat
Experimental: (§1) Animals: The experimental setup was run in two different sets of measurement procedures to avoid a variation given by each other. The first set of experiments was run in control female rats, and the second set was run in a depressed model called Flint Sensitive Line (FSL), which shares molecular similarities to major depressive patients.
(§2) Anesthesia and general surgical procedure: The rats were injected intraperitoneally with pentobarbital 50 mg/Kg. After 10 min in dark conditions a pinch of the interdigital area confirmed unresponsive of reflexes and the animal was prepared on a table, where legs were semi-extended by tape to fix the animal. The areas of interest (abdomen-inguinal and neck) were shaved and clean-disinfected with water and ethanol. After each study was completed, the animal was sacrificed by an overdose of pentobarbital, and the Atlanto-occipital joint was severed to guarantee a painless procedure for the animal.
Measurements of clitoral blood flow and genital temperature: A suture Nylon 4-0 with a needle was used to extend the urethra opening and expose the mucosa. […] A calibrated laser Doppler flow probe (VP1T, Moor instruments-UK) was used to measure on the front-side of the clitoris, which was connected to the laser Doppler flow monitor; MOORVMS-LDF2 (Moor instruments-UK). A laser Doppler probe was positioned and fixed to a base and a crocodile clamp in order to avoid any movement. The tip of the calibrated probe was immersed in a water-based gel in the exposed area of the urethra-clitoris (FIG. 1B).
A calibrated laser Doppler flow probe (VP1T, Moor instruments-UK) was used to measure on the front-side of the clitoris, which was connected to the laser Doppler flow monitor; MOORVMS-LDF2 (Moor instruments-UK). […] The infusion protocol was performed in sets of 1 min infusion +4 min of further recording of blood flow changes recorded by the system. Electrical field stimulation of the cavernous nerve to the clitoris was utilized as a positive control as described below.
Measurements of clitoral blood flow following electrical stimulation of the cavernous nerve to the clitoris: Through a lower abdominal incision, the cavernous nerve to clitoris was isolated, and electrical stimulation was performed with a slender bipolar platinum electrode, which was connected to a S48 stimulator (Grass Instrument Co., Boston, MA, U.S.A.). To investigate whether stimulation of the nerve leads to hemodynamic changes in the clitorial tissue, the nerve was stimulated as previously described for male rats, with parameters eliciting the maximum amplitude of response (square wave pulses of 6 Volts, 10 Hz, 1 ms for 30 s), and flow was measured with laser Doppler. Clitoral blood flow was measured via laser Doppler as aforementioned.

[5] = biological target: T2, noradrenaline (NA) reuptake in synaptosomes (Rattus norvegicus, UniProt Q63380); assay: Inhibition of noradrenaline (NA) reuptake in synaptosomes; format: biochemical; conditions: 3H-NA, read-out: NA-uptake IC50
T2 construct: in synaptosomes as described in WO 97/16451; from tissue
Experimental: (§3) Compounds were tested for their ability to inhibit the reuptake of the monoamine neurotransmitters dopamine (DA), noradrenaline (NA), and serotonin (5-HT) in synaptosomes as described in WO 97/16451 (NeuroSearch A/S).
(§4) The test values are given as IC50 (the concentration (μM) of the test substance which inhibits the specific binding of ^3H-DA, ^3H-NA, or ^3H-5-HT by 50%).

[6] = biological target: T2, noradrenaline (NA) reuptake in synaptosomes; conditions: reported in U.S. Pat. No. 9,133,184 B1; cited from earlier work
depressed FSL rats = assay: Thermographic measurement of genital temperature in female rats; format: in vivo, rat
Experimental: as §1, §2
A thermographic FLIR camera (E96, InfraTec, Germany, FIG. 1) was positioned at 50 cm distance from the area of interest (FIG. 1C). Three areas (thorax, vagina, and urethral-clitoris) of interest were recorded by digital markers positioned using the Research Studio-FLIR, and data were extracted and imported to Excel.

[7] = biological target: T1, dopamine (DA) reuptake in synaptosomes; assay: Inhibition of dopamine (DA) reuptake in synaptosomes; format: biochemical; conditions: 3H-DA, read-out: DA-uptake IC50
Experimental: as §3, §4

[8] = infusion 0.3 to 10 mg/kg via jugular vein
[9] = infusion 0.3 to 10 mg/kg via jugular vein, laser Doppler
[10] = depressed FSL rats, infusion of increasing doses 0.3-10 mg/Kg, thermography 4x zoom

T2 sequence (Q63380 1-617): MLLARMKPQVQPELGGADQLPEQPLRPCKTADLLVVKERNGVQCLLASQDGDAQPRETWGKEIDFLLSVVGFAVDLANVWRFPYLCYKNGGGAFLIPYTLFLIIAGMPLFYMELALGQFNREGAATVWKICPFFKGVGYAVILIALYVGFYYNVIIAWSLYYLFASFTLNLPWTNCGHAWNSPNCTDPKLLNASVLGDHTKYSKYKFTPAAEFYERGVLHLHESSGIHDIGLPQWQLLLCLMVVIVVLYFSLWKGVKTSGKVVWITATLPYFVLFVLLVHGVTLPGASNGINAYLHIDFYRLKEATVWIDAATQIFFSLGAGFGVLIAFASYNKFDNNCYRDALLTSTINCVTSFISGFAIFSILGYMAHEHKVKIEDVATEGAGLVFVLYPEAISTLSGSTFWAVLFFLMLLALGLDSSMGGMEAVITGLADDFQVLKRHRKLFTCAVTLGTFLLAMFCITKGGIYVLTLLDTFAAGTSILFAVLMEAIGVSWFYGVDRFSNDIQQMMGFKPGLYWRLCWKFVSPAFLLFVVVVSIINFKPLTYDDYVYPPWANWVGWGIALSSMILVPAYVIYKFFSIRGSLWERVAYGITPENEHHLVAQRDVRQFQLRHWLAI
T1 sequence (P23977 whole entry): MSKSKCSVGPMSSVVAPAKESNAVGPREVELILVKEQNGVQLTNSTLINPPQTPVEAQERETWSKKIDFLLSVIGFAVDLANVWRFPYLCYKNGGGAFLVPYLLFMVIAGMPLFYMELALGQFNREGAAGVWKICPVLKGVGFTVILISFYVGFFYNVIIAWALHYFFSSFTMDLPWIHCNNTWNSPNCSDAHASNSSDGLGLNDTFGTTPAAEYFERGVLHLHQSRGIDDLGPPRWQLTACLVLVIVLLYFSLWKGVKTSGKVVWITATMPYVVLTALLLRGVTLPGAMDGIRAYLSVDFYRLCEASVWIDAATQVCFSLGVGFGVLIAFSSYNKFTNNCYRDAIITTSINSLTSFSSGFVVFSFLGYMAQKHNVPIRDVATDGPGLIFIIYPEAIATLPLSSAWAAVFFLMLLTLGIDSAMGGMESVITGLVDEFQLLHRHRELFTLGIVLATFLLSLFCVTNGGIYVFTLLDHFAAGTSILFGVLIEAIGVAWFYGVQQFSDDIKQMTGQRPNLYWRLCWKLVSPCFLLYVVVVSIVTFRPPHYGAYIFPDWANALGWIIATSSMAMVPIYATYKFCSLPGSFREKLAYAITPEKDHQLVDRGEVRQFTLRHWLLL

| Compound | heart rate (HR) [1] | mean arterial pressure (MAP) [1] | number of hops compared to apomorphine ([2]; 10 mg/kg) | darts compared with vehicle and apomorphine ([2]; 1 and 10 mg/kg) | ear wiggling ([2]; single injection, 1 and 10 mg/kg) | IC50 [3] [nM] | average clitoral blood flow compared to vehicle [4, 8] | peak clitoral blood flow compared to vehicle [4, 8] | duration of blood flow in the clitoral area [4, 9] | frequency of blood flow in the clitoral area [4, 9] | magnitude of blood flow in the clitoral area [4, 9] | Peak clitoral blood flow following infusion ([4]; laser Doppler trace, electrical stimulation of cavernous nerve gave 4.31 V) [V] | IC50 [5] [nM] | IC50 [6] [nM] | temperature in the clitoral area (depressed FSL rats; [10]) | temperature in the vagina (depressed FSL rats; [10]) | core temperature (anal thermometer) (depressed FSL rats; during infusion of IP2015) | IC50 [7] [nM] | paracopulatory parameters (hops, ear wiggling, darts) ([2]; 0.25 mg/kg) |
| --- | --- | --- | --- | --- | --- | --- | --- | --- | --- | --- | --- | --- | --- | --- | --- | --- | --- | --- | --- |
| COc1cc2ccc(O[C@@H]3C[C@H]4CC[C@@H](C3)N4)cc2oc1=O [IP2015, exo-7-[(8-azabicyclo[3.2.1]octan-3-yl)oxy]-3-methoxy-chromen-2-one hydrochloride] | significantly increased | comparable to vehicle | increased | dose-dependently increased | did not change | 70 | significantly increased | significantly increased | increased | increased | increased | 4.49 | 3.8 | 3.8 | dose-dependent increases | dose-dependent increases | unchanged | 70 | – |
| CN1CCc2cccc3c2[C@H]1Cc1ccc(O)c(O)c1-3 [apomorphine, reference compound] | – | – | – | – | – | – | – | – | – | – | – | – | – | – | – | – | – | – | did not change |

— patent publication US20260263443A1, “COMPOUND FOR TREATMENT OF FEMALE SEXUAL DYSFUNCTION” (Initiator Pharma A/S, priority 2022, published 2026)
